Test results published in the supplement of paper PMC11061612.

What was measured:
[1] = system: CA46 (Burkitt's Lymphoma); assay: Bliss excess, mean over the matrix (fraction); higher = more synergy
In short: (§1)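 Cell lines grown in DMEM/F12 or RPMI with 10% FBS were plated in 1536-well plates and held 24 hours at 37°C, 5% CO2 before 72 hours of exposure to two-drug dose matrices, with DMSO typically at 0.2%. CellTiter-Glo 2.0 luminescence gave viability, which was converted to inhibition. Vehicle wells were set to 0 and blank wells to 1. Combination Emax is the second-highest inhibition in the matrix, and Bliss excess is the observed combination effect minus the expected EA + EB − EA·EB, where EA and EB are the single-agent effects.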

AU565 (Breast Carcinoma) = assay: as above
In short: as §1

[2] = system: JIMT-1 (Breast Carcinoma); assay: as above
In short: as §1

[3] = system: TE-10 (Esophageal Squamous Cell Carcinoma); assay: as above
In short: as §1

[4] = system: NCI-H2228 (Lung Adenocarcinoma); assay: as above
In short: as §1

[5] = system: CAL-27 (Oral Cavity Carcinoma); assay: as above
In short: as §1

[6] = system: OACp4C (Esophageal Adenocarcinoma); assay: as above
In short: as §1

[7] = system: LS-411N (Colorectal Carcinoma); assay: as above
In short: as §1

[8] = system: Jurkat (T-Lymphoblastic Leukemia); assay: as above
In short: as §1

[9] = system: A253 (Head and Neck Carcinoma); assay: as above
In short: as §1

A204 (Rhabdomyosarcoma) = assay: as above
In short: as §1

[10] = system: NCI-H716 (Colorectal Carcinoma); assay: as above
In short: as §1

EW-16 (Ewing's Sarcoma) = assay: as above
In short: as §1

IM-9 (Non-Cancerous) = assay: combination Emax (second highest fraction inhibited in the dose matrix, 72 h); higher = more inhibition; extreme values may be limits of the assay
In short: as §1

[11] = system: 22RV1 (Prostate Carcinoma); assay: as above
In short: as §1

[12] = system: NCI-H2087 (Lung Adenocarcinoma); assay: as above
In short: as §1

PEO1 (Ovarian Carcinoma) = assay: as above
In short: as §1

WM1552C (Melanoma) = assay: as above
In short: as §1

EB2 (Burkitt's Lymphoma) = assay: as above
In short: as §1

[13] = system: JHH-2 (Hepatocellular Carcinoma); assay: as above
In short: as §1
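For Bliss excess, mean over the matrix in this document: after 72 h of two-drug dosing.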

| Compound | Bliss excess [1] | Bliss excess (AU565 (Breast Carcinoma)) | Bliss excess [2] | Bliss excess [3] | Bliss excess [4] | Bliss excess [5] | Bliss excess [6] | Bliss excess [7] | Bliss excess [8] | Bliss excess [9] | Bliss excess (A204 (Rhabdomyosarcoma)) | Bliss excess [10] | Bliss excess (EW-16 (Ewing's Sarcoma)) | combination Emax (IM-9 (Non-Cancerous)) | combination Emax [11] | combination Emax [12] | combination Emax (PEO1 (Ovarian Carcinoma)) | combination Emax (WM1552C (Melanoma)) | combination Emax (EB2 (Burkitt's Lymphoma)) | combination Emax [13] |
| --- | --- | --- | --- | --- | --- | --- | --- | --- | --- | --- | --- | --- | --- | --- | --- | --- | --- | --- | --- | --- |
| CN(CCO)CC[C@H](CSc1ccccc1)Nc1ccc(S(=O)(=O)NC(=O)c2ccc(N3CCC([C@@H](O)c4ccccc4-c4ccc(Cl)cc4)CC3)cc2)cc1S(=O)(=O)C(F)(F)F [AZD4320] + Cc1cc2ncnn2cc1Nc1ncc2c(n1)n(C1CCOCC1)c(=O)n2C [AZD7648] (first compound max 1 µM, 7x7, partner max 10 µM) | -0.0061 | -0.0132 | -0.0513 | -0.0276 | -0.0231 | -0.0355 | 0.0447 | -0.0132 | 0.0134 | -0.0253 | -0.0551 | -0.0253 | -0.0475 | 0.696 | 0.426 | 0.286 | 0.386 | 0.143 | 0.431 | 0.448 |
| Cc1cc2ncnn2cc1Nc1ncc2c(n1)n(C1CCOCC1)c(=O)n2C [AZD7648] + CCN(CCO)CCCOc1ccc2c(Nc3cc(CC(=O)Nc4cccc(F)c4)[nH]n3)ncnc2c1 [AZD2811] (first compound max 10 µM, 7x7, partner max 1 µM) | 0.0249 | 0.0433 | -0.0141 | 0.043 | -0.0127 | 0.0107 | 0.0003 | 0.0255 | -0.01 | 0.0411 | 0.0034 | 0.0292 | 0.0436 | 0.943 | 0.396 | 0.215 | 0.262 | 0.43 | 0.473 | 0.446 |
| Cc1cc2ncnn2cc1Nc1ncc2c(n1)n(C1CCOCC1)c(=O)n2C [AZD7648] + CN(C)CCCOc1ccc(-c2ccc3ncc4c(c3c2)n(C2CCOCC2)c(=O)n4C)cn1 [AZD0156] (first compound max 10 µM, 7x7, partner max 1 µM) | -0.0193 | 0.0589 | 0.0217 | -0.0023 | 0.0707 | 0.0004 | 0.0043 | -0.0081 | 0.0382 | 0.0149 | -0.0372 | 0.0563 | 0.0073 | 0.456 | 0.468 | 0.146 | 0.184 | 0.29 | 0.484 | 0.491 |
| Cc1cc2ncnn2cc1Nc1ncc2c(n1)n(C1CCOCC1)c(=O)n2C [AZD7648] + O=C(c1cc(Cc2n[nH]c(=O)c3ccccc23)ccc1F)N1CCN(C(=O)C2CC2)CC1 [Olaparib] (first compound max 10 µM, 7x7, partner max 10 µM) | -0.0518 | -0.0658 | -0.0191 | 0.011 | -0.0728 | -0.0448 | -0.0203 | -0.0195 | 0.108 | -0.0419 | -0.0802 | -0.0056 | -0.0484 | 0.51 | 0.346 | 0.135 | 0.153 | 0.117 | 0.526 | 0.473 |
| Cc1cc2ncnn2cc1Nc1ncc2c(n1)n(C1CCOCC1)c(=O)n2C [AZD7648] + C[C@@H]1COCCN1C2=NC(=NC(=C2)C3(CC3)[S@](=N)(=O)C)C4=C5C=CNC5=NC=C4 [AZD6738] (first compound max 10 µM, 7x7, partner max 10 µM) | 0.0493 | 0.0393 | -0.0238 | 0.0327 | -0.0156 | -0.0327 | -0.0284 | -0.0185 | 0.011 | 0.0402 | -0.0105 | 0.0287 | 0.0269 | 0.964 | 0.518 | 0.583 | 0.482 | 0.633 | 0.803 | 0.736 |
| CN(CCO)CC[C@H](CSc1ccccc1)Nc1ccc(S(=O)(=O)NC(=O)c2ccc(N3CCC([C@@H](O)c4ccccc4-c4ccc(Cl)cc4)CC3)cc2)cc1S(=O)(=O)C(F)(F)F [AZD4320] + C1CN(CCC1(C(=O)N[C@@H](CCO)C2=CC=C(C=C2)Cl)N)C3=NC=NC4=C3C=CN4 [Capivasertib] (first compound max 1 µM, 7x7, partner max 3 µM) | -0.0496 | 0.0161 | -0.0424 | -0.0212 | -0.0392 | -0.0362 | 0.0209 | -0.048 | -0.0203 | -0.0035 | -0.0393 | -0.0262 | -0.0469 | 0.586 | 0.471 | 0.232 | 0.432 | 0.183 | 0.534 | 0.539 |
| COc1cc2c(cc1OCCCCCOc1cc3c(cc1OC)C(=O)N1C=C(C)C[C@H]1C=N3)N=C[C@@H]1CC(C)=CN1C2=O [SG3199] + O=C(c1cc(Cc2n[nH]c(=O)c3ccccc23)ccc1F)N1CCN(C(=O)C2CC2)CC1 [Olaparib] (first compound max 0.001 µM, 7x7, partner max 10 µM) | -0.0357 | -0.0315 | -0.0188 | -0.0402 | -0.0607 | -0.0664 | -0.0268 | -0.0255 | 0.0874 | -0.0426 | -0.0686 | -0.0322 | -0.0066 | 0.38 | 0.095 | 0.106 | 0.0793 | 0.178 | 0.278 | 0.192 |
